Test results taken from patent publication US10040804B2, “Compounds targeting proteins, compositions, methods, and uses thereof” (BioTheryX, Inc., priority 2016, dated 2018).

Tests used:
[1] = test system: IL-6; test: IL-6 expression in LPS stimulated PBMCs (Meso Scale); assay type: cell-based, human; conditions: for inhibition at 0.1 µM / inhibition at 10 µM / inhibition at 1 µM: Homo sapiens, PBMC, LPS-stimulated PBMCs; for inhibition at 0.1 µM: compound concentration 0.1 μM; for inhibition at 10 µM: compound concentration 10 μM; for inhibition at 1 µM: compound concentration 1 μM
Method: FIGS. 6 and 9B are graphs showing IL-6 expression in LPS stimulated peripheral blood mononuclear cells (PBMCs). PBMCs were plated in 96-well plates and pretreated with compound (Compound 1-9 individually) for 1 h, and then induced with 100 ng/mL LPS for 18-24 h. Cytokines were measured according to MesoScale protocol. Negative control wells were treated with DMSO. Compound activity was measured as a percentage of LPS-induced activity. “Rev” is lenalidomide.
(§1) Frozen primary blood mononuclear cells (PBMCs) and frozen CD14+ mobilized peripheral blood monocytes were purchased from AllCells. Cells were quick thawed, and washed 1-time with RPMI-1640/10% FBS/1% Penicillin/1% Streptomycin and plated in 96-well plates at 200,000 cells per well. Cells were pretreated with DMSO only, Compound 5013 (lenolidamide) or the indicated compound for 1 h and then induced with 100 ng/mL lipopolysaccharide (LPS) for 18-24 h. The supernatant was analyzed for IL-1 beta, IL-6, and TNF-α using Meso Scale assay according to manufacturer's protocol. The negative control wells were treated with DMSO.
(§2) PBMCs: AllCells PB003F, Normal Peripheral Blood MNC.
(§3) Media: RPMI 1640/10% FBS/1% Pen-Strep.

[2] = test system: Molm-13 cells; test: Molm-13 cell viability (CellTiter-Glo); assay type: cell-based; conditions: Homo sapiens; for cytotoxicity at 10 µM: compound concentration 10 μM; for cytotoxicity at 1 µM: compound concentration 1 μM; for cytotoxicity at 0.1 µM: compound concentration 0.1 μM
Method: (§4) FIG. 10A is a graph showing antiproliferative activity in H1048 (SCLC) cells. FIG. 10B is a graph showing antiproliferative activity in Molm-13 (AML) cells. In FIGS. 10A and 10B, the cells were incubated for 72 hrs with Compound 9 at the indicated concentrations or DMSO. Compound activity was measured based on the signal from remaining viable cells.
(§5) Molm-13 cells were cultivated in RPMI-1640 (10% FBS/1% pen-strep) and were plated in white walled 96-well plates at 20,000 cells/well. H1048 cells were cultured in DMEM:F12 media supplemented with 5% fetal bovine serum, insulin, transferrin, sodium selenite, hydrocortisone, β-estradiol, penicillin and streptomycin, and were plated in white walled 96-well plates at 20,000 cells/well. MDA-MB-231 cells were cultured in DMEM media supplemented with 10% fetal bovine serum, penicillin and streptomycin, and were plated in white walled 96-well plates at 10,000 cells/well. Cells were treated with compound or DMSO (0.1%, control) and the cultures were incubated for 3 days at 37° C. and 5% CO2. Following the incubation period, 100 μL of CellTiterGlow (CTG) reagent (CellTiter-Glo® Luminescent Cell Viability Assay, Promega (Madison, Wis.)) was added to each well. Following a 10 min incubation with shaking, luminescence was measured using a Victor Wallac Luminometer.

[3] = test system: TNF-α; test: TNF-α expression in LPS stimulated PBMCs (Meso Scale); assay type: cell-based, human; conditions: for inhibition at 0.1 µM / inhibition at 10 µM / inhibition at 1 µM: Homo sapiens, PBMC; for inhibition at 0.1 µM: compound concentration 0.1 μM; for inhibition at 10 µM: compound concentration 10 μM; for inhibition at 1 µM: compound concentration 1 μM
Method: FIGS. 7 and 9C are graphs showing TNF-a expression in LPS stimulated peripheral blood mononuclear cells (PBMCs). PBMCs were plated in 96-well plates and pretreated with compound (Compound 1-9 individually) for 1 h, and then induced with 100 ng/mL LPS for 18-24 h. Cytokines in the media were measured according to MesoScale protocol. The negative control wells were treated with DMSO. Compound activity is measured as a percentage of LPS-induced activity. “Rev” is lenalidomide.
as §1, §2, §3

[4] = test system: H1048 cells; test: H1048 cell viability (CellTiter-Glo); assay type: cell-based; conditions: Homo sapiens; for viability at 1 µM / viability at 10 µM: NCI-H1048, 72 h, H1048, 3 days, DMSO = 100.00; for viability at 1 µM: 1 μM compound concentration; for viability at 10 µM: 10 μM compound concentration
Method: as §4, §5

[5] = test system: IL-1β; test: IL-1β expression in LPS stimulated PBMCs (Meso Scale); assay type: cell-based, human; conditions: for inhibition at 0.1 µM / inhibition at 10 µM / inhibition at 1 µM: Homo sapiens, PBMC; for inhibition at 0.1 µM: compound concentration 0.1 μM; for inhibition at 10 µM: compound concentration 10 μM; for inhibition at 1 µM: compound concentration 1 μM
Method: FIGS. 5 and 9A are graphs showing IL-1-beta expression in LPS stimulated peripheral blood mononuclear cells (PBMCs), PBMCs were plated in 96-well plates and pretreated with compound (Compound 1-9 individually) for 1 h, and then induced with 100 ng/mL LPS for 18-24 h. Cytokines in the media were measured according to MesoScale protocol. Negative control wells were treated with DMSO. Compound activity is measured as a percentage of LPS-induced activity. “Rev” is lenalidomide.
as §1, §2, §3

[6] = test system: MDA-MB-231 cells; test: MDA-MB-231 cell viability (CellTiter-Glo); assay type: cell-based; conditions: Homo sapiens, 72 h, 3 days, DMSO = 100.00; for viability at 1 µM: 1 μM compound concentration; for viability at 10 µM: 10 μM compound concentration
Method: as §5

[7] = biological target: T1, GSPT1 (Homo sapiens, UniProt P15170); test: GSPT1 protein levels by Western Blot analysis; assay type: cell-based; conditions: DMSO = 100.00; for remaining activity at 0.1 µM: 100 nM compound concentration; for remaining activity at 1 µM: 1 μM compound concentration
T1 construct: Whole cell extracts were prepared using RIPA buffer according to manufacturer's protocol (Pierce); endogenous in cells
Method: Cells were lysed using RIPA Buffer (Pierce) and a Western Blot analysis was performed using anti-GSPT1 and anti-β-actin antibodies. FIG. 11B is a graph showing the expression levels of GSPT1 protein in Molm-13 (AML) cells. Protein expression levels were measured using the LiCor Odyssey instrumentation and methods.
Western Blot Protocol: Cell lines were grown in RPMI 1640 supplemented with streptomycin, penicillin and 10% fetal bovine serum.
Cells were cultured at approximately 10^6 cells per mL and incubated in DMSO or each of the indicated compounds for 6-8 h. Whole cell extracts were prepared using RIPA buffer according to manufacturer's protocol (Pierce). Briefly, 2×10^6 cells were washed once in PBS, the cell pellets were resuspended in RIPA buffer and allowed to incubate for 15 minutes on ice. Cells debris was removed by centrifugation and the cleared whole cell lysates were transferred to new tubes for further analysis.
For Western blot analysis, whole cell protein extracts were separated on 4-12% SDS-polyacrylamide gels, transferred to nitrocellulose, and probed with the indicated primary antibodies. Membranes were subsequently washed and probed with the appropriate IRDye secondary antibodies (LI-COR). The signal was detected using the Odyssey Imaging System (LI-COR).
GSPT1: Rabbit anti-GSPT1 was obtained from Abcam, ab126090 (Cambridge, Eng.)

[8] = MOLM-13, read-out: % Inhibition (MOLM-13 Cell Viability)

T1 sequence (P15170 whole entry): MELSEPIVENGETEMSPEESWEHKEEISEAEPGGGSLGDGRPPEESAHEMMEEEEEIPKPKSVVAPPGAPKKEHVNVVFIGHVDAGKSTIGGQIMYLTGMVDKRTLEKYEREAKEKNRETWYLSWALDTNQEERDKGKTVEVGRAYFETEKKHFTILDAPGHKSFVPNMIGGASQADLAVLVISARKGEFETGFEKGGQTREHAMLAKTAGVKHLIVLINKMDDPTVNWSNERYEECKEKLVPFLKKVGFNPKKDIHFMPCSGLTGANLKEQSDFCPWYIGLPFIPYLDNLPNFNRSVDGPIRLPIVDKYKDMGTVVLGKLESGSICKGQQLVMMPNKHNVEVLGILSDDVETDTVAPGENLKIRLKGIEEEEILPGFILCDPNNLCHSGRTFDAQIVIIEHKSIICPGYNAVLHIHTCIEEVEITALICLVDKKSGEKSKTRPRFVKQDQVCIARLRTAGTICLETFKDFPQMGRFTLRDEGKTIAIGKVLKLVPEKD
T1 sequence (Q96SW2 whole entry, further chain): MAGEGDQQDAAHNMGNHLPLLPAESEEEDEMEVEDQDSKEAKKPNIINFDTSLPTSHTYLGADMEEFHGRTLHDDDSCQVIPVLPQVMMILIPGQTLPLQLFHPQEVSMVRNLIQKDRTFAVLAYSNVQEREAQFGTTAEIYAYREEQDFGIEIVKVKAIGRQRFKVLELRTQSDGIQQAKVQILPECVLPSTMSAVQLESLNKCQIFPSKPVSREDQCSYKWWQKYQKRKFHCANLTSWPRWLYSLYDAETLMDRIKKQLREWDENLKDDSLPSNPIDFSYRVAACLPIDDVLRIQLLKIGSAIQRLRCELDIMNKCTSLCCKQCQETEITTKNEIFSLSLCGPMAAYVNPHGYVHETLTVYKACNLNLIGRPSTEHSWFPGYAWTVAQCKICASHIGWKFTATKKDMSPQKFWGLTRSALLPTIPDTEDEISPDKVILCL
T1 sequence (Q16531 whole entry partner): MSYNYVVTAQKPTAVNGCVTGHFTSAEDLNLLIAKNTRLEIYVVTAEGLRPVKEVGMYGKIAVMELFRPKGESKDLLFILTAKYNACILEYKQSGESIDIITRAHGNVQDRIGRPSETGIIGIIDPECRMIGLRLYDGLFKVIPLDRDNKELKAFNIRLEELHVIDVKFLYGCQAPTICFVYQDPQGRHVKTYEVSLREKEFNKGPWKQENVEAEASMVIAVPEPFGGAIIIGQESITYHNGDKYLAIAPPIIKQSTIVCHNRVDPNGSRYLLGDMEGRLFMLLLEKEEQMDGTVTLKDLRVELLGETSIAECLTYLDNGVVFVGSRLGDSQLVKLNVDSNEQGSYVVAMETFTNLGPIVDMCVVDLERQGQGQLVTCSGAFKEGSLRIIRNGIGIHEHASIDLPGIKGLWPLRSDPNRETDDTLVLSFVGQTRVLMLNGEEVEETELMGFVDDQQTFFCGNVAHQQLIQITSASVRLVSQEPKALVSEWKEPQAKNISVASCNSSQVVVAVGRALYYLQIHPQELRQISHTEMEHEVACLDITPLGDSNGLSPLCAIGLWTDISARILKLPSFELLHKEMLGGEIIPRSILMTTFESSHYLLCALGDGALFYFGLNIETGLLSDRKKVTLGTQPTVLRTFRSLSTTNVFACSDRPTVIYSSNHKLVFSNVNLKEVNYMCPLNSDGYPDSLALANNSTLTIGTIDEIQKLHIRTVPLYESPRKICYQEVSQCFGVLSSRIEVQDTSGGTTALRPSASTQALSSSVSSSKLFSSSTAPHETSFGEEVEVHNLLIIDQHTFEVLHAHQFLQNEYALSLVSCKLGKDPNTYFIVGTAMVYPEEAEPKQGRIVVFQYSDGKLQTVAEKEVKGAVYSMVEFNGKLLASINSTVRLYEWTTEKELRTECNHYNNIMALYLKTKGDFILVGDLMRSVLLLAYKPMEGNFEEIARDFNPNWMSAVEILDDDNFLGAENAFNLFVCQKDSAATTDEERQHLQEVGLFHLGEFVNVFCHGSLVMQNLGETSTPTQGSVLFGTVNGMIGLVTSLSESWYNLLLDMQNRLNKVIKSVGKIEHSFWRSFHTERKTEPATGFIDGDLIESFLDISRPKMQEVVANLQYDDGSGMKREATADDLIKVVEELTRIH

SMILES | viability at 1 µM [4] [%] | viability at 10 µM [4] [%] | viability at 1 µM [6] [%] | viability at 10 µM [6] [%] | inhibition at 10 µM [1] [%] | inhibition at 10 µM [3] [%] | inhibition at 10 µM [5] [%] | inhibition at 1 µM [1] [%] | cytotoxicity at 1 µM [2, 8] [%] | inhibition at 1 µM [3] [%] | inhibition at 1 µM [5] [%] | further results
Cc1ccc(NC(=O)NCc2scc3c2CN(C2CCC(=O)NC2=O)C3=O)cc1Cl (centres unmarked) [Compound 9, 1-(3-chloro-4-methylphenyl)-3-((5-(2,6-dioxopiperidin-3-yl)-4-oxo-5,6-dihydro-4H-thieno[3,4-c]pyrrol-1-yl)methyl)urea] | 7.5 | 7.93 | 19.6 | 19.1 | – | – | – | – | – | – | – | inhibition at 0.1 µM [1]: 100%; cytotoxicity at 0.003 µM ([2]; MOLM-13, compound concentration 0.003 μM, read-out: % Inhibition (MOLM-13 Cell Viability)): 50%; IC50 ([2]; Molm-13 cells, 72 hrs (FIG. 10B), read-out: approximate IC50 cell viability): ~3 nM; inhibition at 0.1 µM [3]: 98%; IC50 ([4]; NCI-H1048, H1048 cells, 72 hrs (FIG. 10A)): 0.5 nM; inhibition at 0.1 µM [5]: 98%; remaining activity at 0.1 µM [7]: 6.77%; remaining activity at 1 µM [7]: 5.31%
O=C1CCC(N2Cc3c(csc3C(F)(F)F)C2=O)C(=O)N1 (centres unmarked) [Compound 29, 3-(4-Oxo-1-(trifluoromethyl)-4H-thieno[3,4-c]pyrrol-5(6H)-yl)piperidine-2,6-dione] | – | – | – | – | 19 | 60 | 57 | – | – | – | – | cytotoxicity at 10 µM [2, 8]: 10%
Cc1ccc(NC(=O)NCc2csc3c2CN([C@H]2CCCC(=O)NC2=O)C3=O)cc1Cl [Compound 45, (S)-1-(3-Chloro-4-methylphenyl)-3-((5-(2,7-dioxoazepan-3-yl)-6-oxo-5,6-dihydro-4H-thieno[2,3-c]pyrrol-3-yl)methyl)urea] | 12.7 | 9.89 | 101 | 46.7 | – | – | – | 18 | 59 | 22 | 19 | remaining activity at 0.1 µM [7]: 90.3%; remaining activity at 1 µM [7]: 22.3%
Cc1ccc(NC(=O)NCc2scc3c2CN(C2CCC(=O)NC2=O)C3=O)nc1Cl (centres unmarked) [Compound 46, 1-(6-Chloro-5-methylpyridin-2-yl)-3-((5-(2,6-dioxopiperidin-3-yl)-4-oxo-5,6-dihydro-4H-thieno[3,4-c]pyrrol-1-yl)methyl)urea] | 9.35 | 11.5 | 29 | 24.1 | – | – | – | – | – | – | – | inhibition at 0.1 µM [1]: 85%; cytotoxicity at 0.1 µM [2, 8]: 100%; inhibition at 0.1 µM [3]: 58%; inhibition at 0.1 µM [5]: 54%; remaining activity at 0.1 µM [7]: 65.2%; remaining activity at 1 µM [7]: 4.73%
Cc1ccc(NC(=O)Nc2scc3c2CN(C2CCC(=O)NC2=O)C3=O)cc1Cl (centres unmarked) [Compound 50, 1-(3-Chloro-4-methylphenyl)-3-(5-(2,6-dioxopiperidin-3-yl)-4-oxo-5,6-dihydro-4H-thieno[3,4-c]pyrrol-1-yl)urea] | 15.8 | 13.4 | 108 | 95.7 | – | – | – | 0 | 41 | 1 | 14 | –
Cc1ccc(CNC(=O)NCc2csc3c2CN([C@H]2CCCC(=O)NC2=O)C3=O)cc1Cl [Compound 51, (S)-1-(3-Chloro-4-methylbenzyl)-3-((5-(2,7-dioxoazepan-3-yl)-6-oxo-5,6-dihydro-4H-thieno[2,3-c]pyrrol-3-yl)methyl)urea] | 94.9 | 24.1 | 108 | 103 | – | – | – | 5 | 0 | 49 | 38 | –
Cc1ccc(CC(=O)Nc2scc3c2CN(C2CCC(=O)NC2=O)C3=O)cc1Cl (centres unmarked) [Compound 56, 2-(3-Chloro-4-methylphenyl)-N-(5-(2,6-dioxopiperidin-3-yl)-4-oxo-5,6-dihydro-4H-thieno[3,4-c]pyrrol-1-yl)acetamide] | 29.1 | 26.3 | 108 | 101 | – | – | – | 12 | – | 59 | 55 | cytotoxicity at 0.1 µM [2, 8]: 10%
Cc1cnc(Nc2ccc(OCCCNC(=O)NCc3scc4c3CN(C3CCC(=O)NC3=O)C4=O)cc2)nc1Nc1cccc(S(=O)(=O)NC(C)(C)C)c1 (centres unmarked) [Compound 62, N-(tert-Butyl)-3-((2-((4-(3-(3-((5-(2,6-dioxopiperidin-3-yl)-4-oxo-5,6-dihydro-4H-thieno[3,4-c]pyrrol-1-yl)methyl)ureido)propoxy)phenyl)amino)-5-methylpyrimidin-4-yl)amino)benzenesulfonamide] | – | – | – | – | 15 | 63 | 51 | – | 71 | – | – | –
Cc1sc2c(c1C)C(c1ccc(Cl)cc1)=N[C@@H](CC(=O)NCCCCNCC(=O)NCc1scc3c1CN([C@H]1CCCC(=O)NC1=O)C3=O)c1nnc(C)n1-2 [Compound 63, 2-((S)-4-(4-Chlorophenyl)-2,3,9-trimethyl-6H-thieno[3,2-f][1,2,4]triazolo[4,3-a][1,4]diazepin-6-yl)-N-(4-((2-(((5-((S)-2,7-dioxoazepan-3-yl)-4-oxo-5,6-dihydro-4H-thieno[3,4-c]pyrrol-1-yl)methyl)amino)-2-oxoethyl)amino)butyl)acetamide] | – | – | – | – | 1 | 34 | 27 | – | – | – | – | –
O=C1CCC(N2Cc3c(C4CCCC4)csc3C2=O)C(=O)N1 (centres unmarked) [Compound 64, 3-(3-Cyclopentyl-6-oxo-4H-thieno[2,3-c]pyrrol-5(6H)-yl)piperidine-2,6-dione] | – | – | – | – | 8 | 45 | 22 | – | – | – | – | cytotoxicity at 10 µM [2, 8]: 13%
Nc1cccc2c1CN(C1CCC(=O)NC1=O)C2=O (centres unmarked) [lenalidomide, reference compound] | – | – | – | – | – | – | – | – | – | – | – | reduction of IL-6 levels ([1]; LPS-stimulated PBMCs (FIG. 6)): below 60%; reduction of expression of TNF-α ([3]; equimolar concentration (FIG. 7)): below 60%; reduction of expression of IL-1-b ([5]; equimolar concentration (FIG. 5)): over 60%
